{"source": "patent USRE38102E1", "about": "“Use of a pyridazinone derivative” (Orion Corporation, priority 1998, dated 2003)", "key": {"[1]": {"tested_on": "skinned cardiac fiber (left ventricular papillary muscle)", "experiment": "Calcium sensitizing effect in skinned cardiac fiber", "format": "cell-based, guinea-pig", "settings": "pCa 5.6; concentration not given", "source_text": "Calcium Sensitizing Effect in Skinned Cardiac Fiber\nLeft ventricular papillary muscle of the guinea-pig was dissected and rinsed in ice-cold Tyrode solution. Thereafter the papillary muscle was immersed into a solution containing (mM): Potassium acetate 74.7, EGTA 10, MgSO4 5.4, ATP-Na2 4, DTE 1, MOPS 20, pH 7.0 (by 1 M KOH). Subsequently, the papillary muscle was sonicated at 10 Watt for 60 sec in this ice-cold solution. The distance between ultrasound probe and the papillary muscle was 10 mm. The fibers (<200 μm in diameter) were dissected from surface of sonicated papillary muscles. Moreover, the sonicated and dissected fibers were kept for 30 min in a “skinning” solution (ice-cold) containing saponin (250 μg/ml) in addition to the other constituents. Continuous magnetic stirring was used during this treatment.\nThe fibers which were further dissected (<100 μm in diameter) were then mounted horizontally with a glue (cellulose acetate in acetone) between a steel-rod extension of isometric force transducer (AME-801 strain gauge, Horten Electronics, Norway) and a glass rod attached to a micro-manipulator. The force transducer was connected to an amplifier. The fibers were kept in the “relaxing” solution containing (mM): imidazole 30, ATP-Na2 10, NaN3 5, EGTA 5, MgCl2 12.5, and 350 U creatinkinase. The temperature of the solution was 22° C. and the pH was set to 6.7 by 1 M KOH. […]"}, "[2]": {"tested_on": "guinea-pig papillary muscle", "experiment": "Positive inotropic effect in paced cardiac muscle", "format": "cell-based", "settings": "Cavia porcellus; right ventricular papillary muscle paced at 1 Hz, 37° C.", "method": "Positive Inotropic Effect in Paced Cardiac Muscle\nFour weeks old guinea-pigs weighing about 350 g were used. In the experiments the right ventricular papillary muscle of the heart was mounted for measurement of isometric tension in organ bath containing modified Tyrode solution (37° C.) bubbled with 95% O2, 5% CO2. The composition of the modified Tyrode solution was (mM): NaCl 135; MgCl2.6H2O 1; KCl 5; CaCl2.2H2O 2; NaHCO3 15; Na2HPO4.2H2O 1; glucose 10; pH 7.3-7.4. The volume of the open horizontal chamber was 1 ml and flow rate of the superfusion solution running through the chamber was 5 ml/min. Papillary muscle (<1 mm in diameter) was stretched horizontally between force-displacement transducer (FT 0.3 and a needle fixed to the bottom of the chamber. An initial stretching tension of 300 mg was applied to the muscle which was electrically stimulated (Stimulator model SEC 48 F, Grass Instruments) via platinum field electrodes at 1 Hz with rectangular pulses (duration 4 ms). The stimulation occurred at twice threshold voltage in order to achieve simultaneous activation of all myocytes in the […]. A force-displacement transducer was connected to a polygraph D.C. driver amplifier (model 7 DA, Grass Instruments) and a programmable scanner (model SI 5010, Tetronix). […]"}}}
{"smiles": "Cc1[nH]c(=O)c(C#N)cc1-c1ccncc1", "note": "[Milrinone, milrinone]", "values": [{"measurement": "Calcium sensitizing effect in skinned fiber: Change in force % of control", "setting": "[1]", "value": "ineffective"}, {"measurement": "EC50", "setting": "[2]", "value": 2000, "unit": "nM"}]}
{"smiles": "CC(=O)Nc1ccc(C2=NNC(=O)C[C@H]2C)cc1", "note": "[Compound A, (R)-N-[4-(1,4,5,6-tetrahydro-4-methyl-6-oxo-3-pyridazinyl)phenyl]acetamide]", "values": [{"measurement": "EC50", "setting": "[2]", "value": 100, "unit": "nM"}]}
